From ChEMBL document CHEMBL4130610, “Isolation of Flavonoids and Flavonoid Glycosides from Myrsine africana and Their Inhibitory Activities against Mushroom Tyrosinase” (J Nat Prod, 2018) come the findings set out here.

In assay [1] the target is T1, Tyrosinase (Agaricus bisporus, UniProt O42713).
T1 sequence (O42713 whole entry): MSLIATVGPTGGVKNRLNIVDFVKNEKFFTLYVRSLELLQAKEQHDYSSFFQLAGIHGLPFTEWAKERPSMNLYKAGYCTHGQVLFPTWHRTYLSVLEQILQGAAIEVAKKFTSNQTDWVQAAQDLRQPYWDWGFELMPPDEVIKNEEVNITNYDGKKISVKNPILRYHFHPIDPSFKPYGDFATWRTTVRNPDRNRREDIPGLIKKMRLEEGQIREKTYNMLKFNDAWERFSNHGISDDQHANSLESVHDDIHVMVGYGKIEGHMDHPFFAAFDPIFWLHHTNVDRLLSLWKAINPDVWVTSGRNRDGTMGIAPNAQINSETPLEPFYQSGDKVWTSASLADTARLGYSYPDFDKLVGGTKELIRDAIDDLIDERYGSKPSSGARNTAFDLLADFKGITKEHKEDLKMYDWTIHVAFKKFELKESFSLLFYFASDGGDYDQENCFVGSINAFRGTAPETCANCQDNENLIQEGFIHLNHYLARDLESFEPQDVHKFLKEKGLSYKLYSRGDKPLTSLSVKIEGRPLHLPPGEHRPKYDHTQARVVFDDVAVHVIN
Description: Inhibition of mushroom tyrosinase using L-tyrosine as substrate pretreated for 5 mins followed by substrate addition measured over 30 mins by spectrophotometric method.

Assay [2] concerns the target T1, Tyrosinase. Description: Inhibition of mushroom tyrosinase.
In assay [3] the target is T1, Tyrosinase. The assay can be described thus: Inhibition of mushroom tyrosinase using L-DOPA as substrate measured at 1 min interval by spectrophotometric method.

For `O=c1c(O)c(-c2ccc(O)c(O)c2)oc2cc(O)cc(O)c12` [QUERCETIN], in assay [1], the IC50 worked out at 240 µM.
As for `C[C@@H]1O[C@@H](Oc2c(-c3cc(O)c(O)c(O)c3)oc3cc(O)cc(O)c3c2=O)[C@H](O)[C@H](O)[C@H]1O`, the values for the IC50 in assay [1] and in assay [2] were 120 µM and 320 µM, respectively.
Turning to `CC(=O)O[C@@H]1[C@@H](O)[C@@H](OC(C)=O)[C@H](Oc2c(-c3cc(O)c(O)c(O)c3)oc3cc(O)cc(O)c3c2=O)O[C@H]1C`, the IC50 in assay [1] was determined as 520 µM.
As to `C[C@@H]1O[C@@H](Oc2c(-c3ccc(O)c(O)c3)oc3cc(O)cc(O)c3c2=O)[C@H](O)[C@H](O)[C@H]1O` [QUERCITRIN], the IC50 in assay [1] amounted to 150 µM; in assay [2], 100 µM.
On to `COc1c(O)cc(-c2oc3cc(O)cc(O)c3c(=O)c2O[C@@H]2O[C@@H](C)[C@H](O)[C@@H](O)[C@H]2O)cc1O`, for which the half-maximal inhibitory concentration (IC50) in assay [1] was found to be 310 µM.
In the case of `CC(=O)O[C@@H]1[C@@H](O)[C@@H](O)[C@H](Oc2c(-c3cc(O)c(O)c(O)c3)oc3cc(O)cc(O)c3c2=O)O[C@H]1C`, the IC50 in assay [1] was found to be 280 µM.
Still for that read-out and setting: the figure for `CC(=O)O[C@@H]1[C@@H](OC(C)=O)[C@@H](O)[C@H](Oc2c(-c3cc(O)c(O)c(O)c3)oc3cc(O)cc(O)c3c2=O)O[C@H]1C` is 180 µM; for `COc1c(O)cc(-c2oc3cc(O)cc(O)c3c(=O)c2O[C@@H]2O[C@@H](C)[C@H](OC(C)=O)[C@@H](O)[C@H]2O)cc1O` it is 190 µM; for `OC[C@H]1O[C@@H](Oc2c(O)cc(O)cc2O)[C@H](O)[C@@H](O)[C@@H]1O` it is 410 µM.
In the case of `C[C@@H]1O[C@@H](OC[C@H]2O[C@@H](Oc3c(-c4ccc(O)c(O)c4)oc4cc(O)cc(O)c4c3=O)[C@H](O)[C@@H](O)[C@@H]2O)[C@H](O)[C@H](O)[C@H]1O` [RUTIN], the results for the half-inhibitory concentration (IC50) in assay [3] and in assay [1] were 70 µM and 130 µM, respectively.

A word on the IC50: it is the concentration needed to halve the response being measured.
